Experimental data from US9206192B2, “Trolox derivative-modified fat-soluble anti-cancer pharmaceutical compounds, preparations, preparing methods and use thereof” (CHIA TAI TIANQING PHARMACEUTICAL GROUP CO., LTD, priority 2011, dated 2015).

What was measured:
Format in all cases: cell-based
lung cancer cells (A549) = experiment: In vitro cytotoxicity test, MTT assay, lung cancer cells; conditions: Homo sapiens, 72 h incubation
Experimental: (§1) In this example, GI50 values (the concentration of a drug that inhibits the growth of cancer cells by 50%) of the novel anti-cancer pharmaceutical compounds of the present invention on the inhibition of human ovarian cancer cells (A2780s), colon cancer cells (HT-29), liver cancer HePG2 cells and lung cancer cells (A549) were determined by MTT assay, and further compared with that of anti-cancer drug irinotecan to evaluate in vitro cytotoxicity of the pharmaceutical compounds of the present invention.
(§2) MTT assay: Cells in logarithmic growth phase were seeded in 96-well culture plate at 100 μL/well and a cell density of 10^5/mL. After the cells were incubated for 18 h, the medium was replaced, and thereto the test compound samples with different concentrations were then added at 150 μL/well. The blank group was the wells to which only a RPMI 1640 culture medium comprising 10% fetal bovine serum was added without the addition of cells (for zero setting). The negative control group was the wells to which the equal volume of RPMI 1640 culture medium comprising 10% fetal bovine serum was added and the positive control group was the wells to which the equal volume of 13 μg/ml positive drug was added. Each group had three wells. After the cells were incubated for 72 h, MTT (5 mg/mL) solution was added at 15 μL/well, and the cells were further incubated for 4 h. The supernatant was discarded, and DMSO was added at 150 μL/well. The mixture was shaken and blended for 10 min. After the crystal was completely dissolved, the absorbance (D) value of each well was detected on microplate reader at a wavelength of 490 nm. The cell growth inhibition rate was calculated according to the following equation: Cell growth inhibition rate=(1−average D value of test group/average D value of control group)×100%.

[1] = test system: colon cancer cells (HT-29); experiment: In vitro cytotoxicity test, MTT assay, colon cancer cells; conditions: Homo sapiens, 72 h incubation
Experimental: as §1
as §2, with “After the cells were incubated for 72 h, MTT (5 mg/mL) solution was added at 15 μL/well, and the cells were further incubated for 4 h. The supernatant was discarded, and DMSO was added at 150 μL/well. The mixture was shaken and blended for 10 min.” left out, “The cell growth inhibition rate was calculated according to the following equation: Cell growth inhibition rate=(1−average D value of test group/average D value of control group)×100%.” left out

[2] = test system: human ovarian cancer cells (A2780s); experiment: In vitro cytotoxicity test, MTT assay, ovarian cancer cells; conditions: 72 h incubation, read-out: GI50 Ovarian cancer cell (A2780s)
Experimental: as §1, §2

liver cancer HePG2 cells = experiment: In vitro cytotoxicity test, MTT assay, liver cancer cells; conditions: Homo sapiens, 72 h incubation, read-out: GI50 Live cancer cells (HePG2)
Experimental: as §1
as §2, with “After the cells were incubated for 72 h, MTT (5 mg/mL) solution was added at 15 μL/well, and the cells were further incubated for 4 h. The supernatant was discarded, and DMSO was added at 150 μL/well. The mixture was shaken and blended for 10 min.” left out, “The cell growth inhibition rate was calculated according to the following equation: Cell growth inhibition rate=(1−average D value of test group/average D value of control group)×100%.” left out

Question: For CCc1c2c(nc3ccc(OC(=O)N4CCC(N5CCCCC5)CC4)cc13)-c1cc3c(c(=O)n1C2)COC(=O)[C@]3(O)CC [Irinotecan, irinotecan, reference compound], which GI50 (lung cancer cells (A549)) is on record?
Answer: 58.1 nM

Question: And the GI50 [1]?
Answer: 15200 nM

Question: What about the GI50 [2] of the same compound?
Answer: 19300 nM

Question: And the GI50 (liver cancer HePG2 cells)?
Answer: 9440 nM

Question: Which results are given for CCCCCCOC(=O)[C@@]1(C)CCc2c(C)c(OC(=O)CCC(=O)Oc3ccc4nc5c(c(CC)c4c3)Cn3c-5cc4c(c3=O)COC(=O)[C@]4(O)CC)c(C)c(C)c2O1 [MXL-001, 7-ethyl-10-hydroxycamptothecin R-(+)-6-hydroxy-2,5,7,8-tetramethylchroman-2-carboxylic acid n-hexyl ester-6-succinate]?
Answer: GI50 (lung cancer cells (A549)): 4600 nM; GI50 [2]: 40.9 nM

Question: Which GI50 (lung cancer cells (A549)) does the source give for CCCCCCCCCCCCOC(=O)[C@@]1(C)CCc2c(C)c(OC(=O)CCC(=O)Oc3ccc4nc5c(c(CC)c4c3)Cn3c-5cc4c(c3=O)COC(=O)[C@]4(O)CC)c(C)c(C)c2O1 [MXL-002, 7-ethyl-10-hydroxycamptothecin R-(+)-6-hydroxy-2,5,7,8-tetramethylchroman-2-carboxylic acid dodecyl ester-6-succinate] here?
Answer: 2100 nM

Question: And the GI50 [2]?
Answer: 17.8 nM

Question: What does the source list for CCCCCCCCCCCCCCCCOC(=O)[C@@]1(C)CCc2c(C)c(OC(=O)CCC(=O)Oc3ccc4nc5c(c(CC)c4c3)Cn3c-5cc4c(c3=O)COC(=O)[C@]4(O)CC)c(C)c(C)c2O1 [MXL-003, 7-ethyl-10-hydroxycamptothecin R-(+)-6-hydroxy-2,5,7,8-tetramethylchroman-2-carboxylic acid hexadecyl ester-6-succinate]?
Answer: GI50 (lung cancer cells (A549)): 169 nM; GI50 [1]: 45 nM; GI50 [2]: 16.9 nM; GI50 (liver cancer HePG2 cells): 164 nM
